Results taken from patent US20070197435A1, “Process for the synchronization of ovulation for timed breeding without heat detection” (priority 2006, published 2007).

Legend:
[1] = system: mature postpartum sows; assay: Intravulvar deslorelin at estrus detection, estrus length, pregnancy rate and live piglets; type: in vivo, swine; details: 50 μg deslorelin acetate intravulvar at first estrus detection
Description: Sows were assigned randomly in blocks of two to either control or to be injected intravulvar with 50 mcg of deslorelin in SAIB at the time of estrus detection for sows first detected in estrus in the a.m. and 12 hours later for those first detected in estrus in the p.m. Treated animals were bred Al upon detected estrus and again 24 hours later if still in estrus. Controls received a saline injection on first detected estrus behavior estrus detection and were bred according to the farm's normal procedures. Saline sows bred at detected estrus consistent with farm sows. Deslorelin sows injected intravulvar with 1 ml (50 μg deslorelin acetate) at first estrus detection and AI, then AI again if in estrus the next day. Live piglet number 0.6>in Deslorelin versus Saline sows.

[2] = system: ovariectomized estrogen primed gilt model; assay: Dose response study of deslorelin in SAIB, LH release determined by RIA; type: in vivo, swine; details: single injection of 50 mcg deslorelin in SAIB
Description: A dose response study was performed using deslorelin in SAIB in an ovariectomized estrogen primed gilt model (Barb, et al. (1999) Proceed. Int'l. Symp. Control. Rel. Bioact. Mater., 26).

CCNC(=O)[C@@H]1CCCN1C(=O)[C@H](CCCN=C(N)N)NC(=O)[C@H](CC(C)C)NC(=O)[C@@H](Cc1c[nH]c2ccccc12)NC(=O)[C@H](Cc1ccc(O)cc1)NC(=O)[C@H](CO)NC(=O)[C@H](Cc1c[nH]c2ccccc12)NC(=O)[C@H](Cc1cnc[nH]1)NC(=O)[C@@H]1CCC(=O)N1 [Deslorelin, deslorelin]
Live piglet number, greater in Deslorelin versus Saline sows (per litter) [1]: 0.6 | Time by which LH returned to base level [2]: ≤ 18 h
